In patent US7220731B2, “Derivatised carbohydrates and their use in solid delivery systems” (Elan Drug Delivery Limited, priority 2000, dated 2007):

Assays:
water solubility (glass) = format: physicochemical
[1] = hydrolytic stability (t½) at 20° C.; format: physicochemical; conditions: buffer
log pow = format: physicochemical; conditions: octanol/water
[2] = glass temperature of the compound; format: physicochemical
[3] = physical stability (t½ induction) at 40° C./75% RH; format: physicochemical

melting point: 156 °C
water solubility (glass) (water solubility (glass)): 9.5 ppm
half-life ([1]; pH 4): 12 h
half-life ([1]; pH 7): 14 h
half-life ([1]; pH 9): < 1 h
logP (log pow): 2.9
glass temperature [2]: 110 °C
physical stability (t½ induction) [3]: >1176 h
SMILES: CC(=O)OC1C(O[C@@H]2OC(COC(=O)C3O[C@H](OC(C)=O)C(OC(C)=O)C(OC(C)=O)[C@@H]3OC(C)=O)[C@@H](OC(C)=O)C(OC(C)=O)C2OC(C)=O)OC(COC(=O)C2O[C@H](OC(C)=O)C(OC(C)=O)C(OC(C)=O)[C@H]2OC(C)=O)[C@@H](OC(C)=O)C1OC(C)=O (stereo partly drawn) [Example 1, di(β-tetraacetylglucuronyl)hexaacetyltrehalose]
